Experimental data published in US9173915B1, “Antioxidant eye drops” (priority 2014, dated 2015).
Like-named read-outs stand apart in the source and are kept apart here.

Key:
[1] = test system: lens oxidative stress after UV irradiation; assay: UV-induced cataract model: lens GSH and 4-HNE after UV irradiation; format: in vivo, Sprague Dawley rats
Source text: Exposure to UV irradiation is another major risk factor of cataractogenesis. UV-irradiation induces ROS, which results in a rapid loss of reduced lens gluthione (GSH), the major antioxidant in the lens, followed several weeks later by subsequent lens opacification. For this study, young female Sprague Dawley rats were divided into five equal groups. One group served as the non-irradiated control group, while the second group served as the untreated irradiated control group. The third group received topical Optixcare carbomer vehicle containing 3% JHX-4 (4-(5-hydroxypyrimidin-2-yl)-N,N-dimethyl-3,5-dioxopiperazine-1-sulfonamide (99% pure by HPLC), the fourth received the present antioxidant eye drops composition, prepared as described above and referred to as topical Optixcare EH, and the fifth group received 1 mL of the oral Ocu-GLO™ by gavage, as described above. Treatments began 3 days prior to irradiation and continued until termination of the experiment. Prior to irradiation, each rat was anesthetized by intraperitoneal (i.p.) injection of a mixture of 60 mg/kg of ketamine and 10 mg/kg of xylazine, and the right eye was dilated with 1% tropicamide ophthalmic solution. The contralateral eye was covered with an eye patch that was held in place with black tape. […] Protein levels in an aliquot of the supernatant were measured according to Bradford Assay. Another aliquot was deproteinized with equal volume of 20% TCA and the GSH levels in the deproteinized supernatants were measured at 412 nm according to the DTNB method.
To confirm that the reduced GSH levels after UV exposure were linked to increased levels of ROS, the lenticular levels of the oxidized membrane lipid 4-hydroxynonenol (4-HNE) were determined using a competitive ELISA in the remaining homogenate supernatants by using the OxiSelect HINE Adduct Competitive ELISA Assay Kit (Cell Biolabs, Inc., San Diego, Calif.) according to the manufacturer's instructions.

[2] = test system: neural retina oxidative stress / photoreceptor layer; assay: Light-induced retinal degeneration in dark adapted rats; format: in vivo, Wistar rats
Source text: In the neural retina of dark adapted rats, exposure to light also results in the generation of ROS, iron dysregulation, and the release of iron from ferritin. In this animal model of age-related macular degeneration (AMD), Wistar rats were either orally treated with diet containing 0.05% of the multifunctional antioxidant JHX-4 or topically treated b.i.d. with Optixcare EH, with treatment beginning at the onset of two weeks of dark adaption.
As previously described in detail by Randazzo et al. (PLoS One, 2011, 6(7), p. e21926), groups containing twelve 4-5-week-old male Wistar rats receiving either normal rat chow (untreated), normal rat chow and topically treated with Optixcare EH b.i.d., or oral diet containing 0.05% of the multifunctional antioxidant JHX-4 were dark adapted for two weeks. Rats from each group were then individually placed into acrylic, flat bottom rodent restraints (Plas-labs, Inc., Lansing Mich.) in a light box apparatus and exposed for three hours to 1000 1× of cool white fluorescent lights (Lights of America, Los Angeles, Calif.). An additional group of non-treated rats were also placed into the light box apparatus for three hours, but not exposed to light (non-light-damaged rats, NLD). Immediately following light exposure, 8 light-damaged (LD) rats from each group and 8 NLD rats were immediately euthanized and the neural retinas were carefully dissected from the enucleated eye and frozen on dry ice for subsequent analysis. Subsequently, the thawed retinas were homogenized in lysis buffer for ELISA determinations using 4-HNE-His Adduct and Nitrotyrosine ELISA Kits. Additional thawed retinas were homogenized in RIPA buffer containing Halt Protease and Phosphatase Inhibitor Cocktail for western blot analysis of thioredoxin (TRx) and thioredoxin reductase (TRxR) expression levels. Protein samples were separated by SDS-PAGE and transferred onto nitrocellulose membranes. After blocking the membrane with 5% dry milk in 0.1% TBS-T, the membranes were then incubated overnight at 4° C. with the primary antibodies anti-TRx (1:1000 dilution) or anti-TRxR (1:2000 dilution). Subsequently, after washing with TBS-T, the membranes were incubated with a HRP-conjugated secondary antibody for 1 hour. The protein bands were visualized by chemiluminescence and exposure to x-ray film. Finally, the membranes were re-probed with antibody against GAPDH as an internal control. All visualized protein levels were quantified using the NIH ImageJ program available online at rsbweb.nih.gov/ij/.
Therefore, topical administration of Optixcare EH to light-exposed dark-adapted rats was not anticipated to result in any significant protection of retinal oxidative stress compared to the oral administration of the multifunctional antioxidant JHX-4. […] ROS and free radicals generated by retinal exposure to acute excessive light are also mediated by the thioredoxin (TRx)/thioredoxin reductase (TRxR) defense system. Therefore, the expression levels of both TRx and TRxR in the neural retinas of these rats were also examined.
The reduction of oxidative stress by JHX-4 and Optixcare EH was confirmed by histological measurements of the photoreceptor layers. After light exposure as described above, select rats in each group were returned to the dark environment for 7 additional days. Each rat was then euthanized by carbon dioxide asphyxiation, and the dorsal ventral orientation of each eye was marked with a cautery tool. […]

[3] = test system: human RPE19 cells; design: unit of the concentration uncertain; settings: cited from earlier work
[4] = after 3 hours light exposure, ELISA

| SMILES | lenticular 4-HNE levels vs untreated rats exposed to UV irradiation (FIG. 4) ([1]; UV exposed lenses, competitive ELISA) | 4-HNE lens levels, UV exposed vs unexposed contralateral eyes ([1]; competitive ELISA) | lens GSH levels, UV irradiated eye vs unexposed contralateral lens (FIG. 3) ([1]; pretreated 3 days, two days after 15 minutes UV irradiation) | photoreceptor layer (outer nuclear layer thickness), histology ([2]; 7 days in the dark after light exposure) | 4-HNE-histidine adduct levels in the neural retina (FIG. 5A) [2, 4] | nitrotyrosine adduct levels in the neural retina (FIG. 5B) [2, 4] | expression of thioredoxin (TRx) in the neural retina (FIG. 6A) ([2]; light exposed rats, western blot) | expression of thioredoxin reductase (TRxR) in the neural retina (FIG. 6B) ([2]; light exposed rats, western blot, p<0.05) | reduction of in vitro proliferation of human RPE19 cells ([3]; 50 (unit uncertain)) [%] | reduction of in vitro proliferation of human RPE19 cells ([3]; 100 (unit uncertain)) [%] |
| --- | --- | --- | --- | --- | --- | --- | --- | --- | --- | --- |
| CN(C)S(=O)(=O)N1CC(=O)N(c2ncc(O)cn2)C(=O)C1 [JHX-4, 4-(5-hydroxypyrimidin-2-yl)-N,N-dimethyl-3,5-dioxopiperazine-1-sulfonamide] | significantly lower | statistically similar | not significantly lower | only slightly decreased | neither oxidative marker significantly increased | neither oxidative marker significantly increased | reduced | significantly lowered | – | – |
| Oc1ccc(C=Cc2cc(O)cc(O)c2)cc1 [resveratrol] | – | – | – | – | – | – | – | – | 10 | 25 |
